Results from paper PMC11684173 (ACS Omega, 2024).
Residues, ends and D or L forms follow the SMILES beside them. *: point of attachment. Cbz = O=C(OCc1ccccc1)*; NHOH = ON*

Columns and labels:
Test in all cases: biochemical
Atroxlysin-I (Atr-I) [1] = target: T1, Atroxlysin-I (Atr-I) (Bothrops atrox, UniProt P85420)
Leucurolysin-a (Leuc-a) = Leucurolysin-a (Leuc-a) (Bothrops leucurus, UniProt P84907)
Atroxlysin-I (Atr-I) [2] = target: T1, Atroxlysin-I (Atr-I); type: binding

Leucurolysin-a (Leuc-a), sequence (P84907 whole entry, looked up): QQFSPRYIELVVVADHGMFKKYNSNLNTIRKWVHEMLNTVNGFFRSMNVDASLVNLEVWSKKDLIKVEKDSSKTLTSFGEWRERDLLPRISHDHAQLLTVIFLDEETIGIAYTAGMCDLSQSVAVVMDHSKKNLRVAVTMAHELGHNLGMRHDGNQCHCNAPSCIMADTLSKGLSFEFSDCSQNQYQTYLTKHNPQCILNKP
T1 sequence (P85420 whole entry, added parts left off): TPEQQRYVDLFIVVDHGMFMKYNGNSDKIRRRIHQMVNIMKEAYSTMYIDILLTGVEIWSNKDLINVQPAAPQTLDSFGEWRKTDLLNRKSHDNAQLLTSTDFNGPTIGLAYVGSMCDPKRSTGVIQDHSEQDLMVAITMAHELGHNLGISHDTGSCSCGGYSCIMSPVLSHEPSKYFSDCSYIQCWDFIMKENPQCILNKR

Structure (SMILES)	Hill coef. (Atroxlysin-I (Atr-I) [1])	IC50 (Atroxlysin-I (Atr-I) [1])	Hill coef. (Leucurolysin-a (Leuc-a))	IC50 (Leucurolysin-a (Leuc-a))	Ki (Atroxlysin-I (Atr-I) [2])	enthalpic contribution (Atroxlysin-I (Atr-I) [2])	entropic contribution (Atroxlysin-I (Atr-I) [2])
CNC(=O)[C@H](Cc1ccccc1)NC(=O)[C@H](CC(C)C)[C@H](CSc1cccs1)C(=O)NO [BAT, batimastat]	0.85	50 ± 30 nM	4.91	12000 ± 1000 nM			
CNC(=O)[C@H](CCc1ccccc1)NC(=O)[C@H](CC(=O)NO)CC(C)C [MMP, mmp-III inhibitor]	1.79	50 ± 10 nM	1.34	360 ± 170 nM			
CC1(C)SCCN(S(=O)(=O)c2ccc(Oc3ccncc3)cc2)[C@H]1C(=O)NO [PRI, prinomastat]	0.77	160 ± 10 nM	1.96	20 ± 10 nM	70 ± 50 nM	-0.8 kcal/mol	30 cal/K/mol
CNC(=O)[C@@H](NC(=O)[C@H](CC(C)C)[C@H](O)C(=O)NO)C(C)(C)C [MAR, marimastat]	2.05	80 ± 10 nM	0.78	690 ± 20 nM	60 ± 10 nM	-1.5 kcal/mol	28.2 cal/K/mol
CC(C)C[C@H](NC(=O)[C@@H]1CCCN1C(=O)OCc1ccccc1)C(=O)N[C@@H](C)C(=O)NO [COL, collagenase-I inhibitor] (Cbz-Pro-Leu-Ala-{NHOH})	2.28	8000 ± 2000 nM	1.65	6000 ± 2000 nM			
CC(C)(NS(=O)(=O)c1ccc(Oc2ccc(F)cc2)cc1)C(=O)NO [CP4, CP471474]	2.37	20 ± 10 nM	0.55	210 ± 110 nM	160 ± 10 nM	-3.8 kcal/mol	18.4 cal/K/mol
